This is an account of results in patent US12246010B2, “Formulations of tegavivint and related compounds” (Iterion Therapeutics, Inc., priority 2018, dated 2025).

In test [1] the test system is bleomycin-induced idiopathic pulmonary fibrosis (IPF). In words: Bleomycin-induced IPF mouse model: total lung collagen content (Hydroxyproline Assay). The test is classed as in vivo, C57BL/6 male mice. As to the method: (§1) The purpose of this experiment was to investigate tegavivint nanosuspension in a mouse model of bleomycin-induced idiopathic pulmonary fibrosis (IPF). Test articles were as follows:
(§2) Murine model of pulmonary fibrosis was induced by intratracheally (IT) injected bleomycin (APP Pharmaceuticals, Schaumburg, IL). One dose of 0.025 U bleomycin dissolved in 50 microliters of Saline 0.9%, or PBS as control was administered to each animal on day 0.
(§3) Tegavivint nanosuspension was applied to Group 3 in the form of aerosols, through the method of whole body exposure. The mice were placed inside a plastic box. This box was sealed and connected by one of its sides to the outlet of the nebulizer device, and on the other side to a system of closed water. The whole procedure was carried out inside the fume hood of the animal room. In each treatment session, 5 ml of 25 mg/ml Tegavivint (125 mg) was nebulized over 15 min to each group of 4-5 mice in the chamber. […]
On Day 21 all animals were sacrificed and lungs were harvested. Total lung collagen content was evaluated using the Hydroxyproline Assay as previously described (Morales-Nebreda L, et al. AJRCMB 2015). […] The resulting pellet was resuspended in 1 ml of 0.5 M NaOH and Sirius red staining was quantified spectrophotometrically (540 nm) using a colorimetric plate reader (Bio-Rad, Hercules, CA).

Test [2] shares this test system. The experiment in a line: Bleomycin-induced IPF mouse model: lung mechanics (FlexiVent compliance). It counts as in vivo, C57BL/6 male mice. The procedure: as §1, §2
as §3, with “chamber. To increase exposure of the mice to the aerosol, Tegavivint that precipitated in the aerosol chamber was collected with a syringe and re-nebulized a second and a third time. Mice were nebulized twice a day between day 5 and day 21 after administration of bleomycin. Group 1 and 2 received nebulized vehicle 5 ml in the same manner.” for “chamber.”

[3] abbreviates: Group 3: IT bleomycin Day 0, 5 ml of 25 mg/ml tegavivint aerosol BID Day 5-21, Day 21, individual animals.

Values joined by “and” are separate entries in the source; they are usually repeats but may differ in a detail not shown here. Equal entries are not always repeated.

For the compound `C[C@@H]1C[C@H](C)CN(S(=O)(=O)c2ccc3c(c2)C(=NO)c2cc(S(=O)(=O)N4C[C@H](C)C[C@H](C)C4)ccc2C3=NO)C1` [BC2059, tegavivint], the “effect on total lung collagen content after bleomycin injury” value in test [1] (Group 3, inhaled) is listed as “reversed this change”. Besides, the Hydroxyproline in test [1] (setting [3]) was 70.016 μg/half lung and 39.44 μg/half lung and 45.68 μg/half lung and 58.784 μg/half lung and 64.296 μg/half lung. In addition, in test [2] (Group 3, inhaled), the “effect on lung compliance after bleomycin injury” value is recorded as “reversed the compliance values to near those of the sham-treated controls”. The Compliance in test [2] (setting [3]) was 0.05515 ml/cm H2O and 0.05604 ml/cm H2O and 0.06762 ml/cm H2O and 0.0543 ml/cm H2O and 0.0561 ml/cm H2O.
